These results are taken from PubChem BioAssay (NCI).

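Results reflect a 48-hour exposure of cells in 96-well plates to compound at five concentrations. At the GI50, growth is halved. TGI marks complete inhibition of growth.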

Some test systems named below: SF-539 CNS; 786-0 renal; MOLT-4 leukemia; SF-295 CNS; HL-60(TB) leukemia; SK-MEL-28 melanoma; SK-MEL-2 melanoma; UACC-62 melanoma; OVCAR-3 ovarian; MCF7 breast.
Common to all, as to experiment: growth of human tumour cells (NCI), 48 h

On to `Cc1ccc(S(=O)(=O)NC(=O)NC(Cc2c[nH]c3ccccc23)C(=O)O)cc1` (stereo not drawn), for which the TGI in the experiment on SF-539 CNS, in the experiment with 786-0 renal, in the experiment on MOLT-4 leukemia, with SF-295 CNS, in the experiment with HL-60(TB) leukemia and in the experiment with SK-MEL-28 melanoma was more than 100 µM in each case. In the experiment with SK-MEL-2 melanoma, this compound returned a TGI of more than 100 µM.
As to `CCCSc1cc(Cl)c(C)cc1S(=O)(=O)n1ccnc1OCCCN(C)C`, the TGI in the experiment on UACC-62 melanoma, in the experiment with SF-539 CNS, with 786-0 renal, with OVCAR-3 ovarian, in the experiment with MOLT-4 leukemia and in the experiment with MCF7 breast was more than 100 µM in each case. Further, the TGI in the experiment on SF-295 CNS, with SK-MEL-28 melanoma and with SK-MEL-2 melanoma was more than 100 µM each time.
For `O=[N+]([O-])c1ccc2c(c1)nc(Cc1ccccc1)n2C[C@@H]1CCCN2CCCCC12` (stereo partly drawn), the TGI is 36.3 µM in the experiment with UACC-62 melanoma; 47.6 µM in the experiment on 786-0 renal; more than 100 µM with OVCAR-3 ovarian; 47.6 µM in the experiment with MOLT-4 leukemia; more than 100 µM in the experiment with MCF7 breast; 37.9 µM with SF-295 CNS. Further, the TGI with SK-MEL-28 melanoma was determined as 38.3 µM; with SK-MEL-2 melanoma, 44.8 µM.
Consider `Cc1cn(C2CC(O)C(CO)C2C)c(=O)[nH]c1=O` (stereo not drawn), for which the TGI in the experiment on UACC-62 melanoma, with SF-539 CNS, with OVCAR-3 ovarian, in the experiment on MOLT-4 leukemia, in the experiment on SF-295 CNS and with HL-60(TB) leukemia was more than 100 µM throughout. The TGI in the experiment with SK-MEL-28 melanoma and in the experiment with SK-MEL-2 melanoma was more than 100 µM in each case.
Regarding `CCN(CC)CCCCCCCCNc1c2ccc(Cl)cc2nc2ccc(OC)cc12`, the GI50 with UACC-62 melanoma was 1.8 µM; in the experiment on SF-539 CNS, 1.42 µM; in the experiment on OVCAR-3 ovarian it was 1.91 µM; in the experiment on MOLT-4 leukemia, 0.951 µM; in the experiment on SF-295 CNS it was 1.68 µM; with HL-60(TB) leukemia it was 2.04 µM. The GI50 in the experiment on SK-MEL-28 melanoma is 1.95 µM. The TGI amounted to 3.22 µM in the experiment on UACC-62 melanoma; 2.87 µM with SF-539 CNS; 4.33 µM with OVCAR-3 ovarian; 4.68 µM in the experiment with MOLT-4 leukemia; 3.95 µM with SF-295 CNS; 4.08 µM with HL-60(TB) leukemia. This compound also gave a TGI in the experiment on SK-MEL-28 melanoma of 3.63 µM.
As for `C=Nc1ccc([N+](=O)[O-])cc1`, the TGI in the experiment on UACC-62 melanoma, with SF-539 CNS, in the experiment with 786-0 renal, in the experiment with OVCAR-3 ovarian, with MOLT-4 leukemia and in the experiment on SF-295 CNS was more than 100 µM in each case. The TGI in the experiment on HL-60(TB) leukemia, in the experiment on SK-MEL-28 melanoma and with SK-MEL-2 melanoma was more than 100 µM in each case.
Take `Cc1nc2c(cc1C(=O)NN)c(=O)n(C)c(=O)n2C`: the TGI with UACC-62 melanoma, in the experiment on 786-0 renal, in the experiment on OVCAR-3 ovarian, in the experiment with MOLT-4 leukemia, with MCF7 breast and in the experiment on SF-295 CNS was more than 100 µM in each case. For the same compound, the TGI with SK-MEL-28 melanoma and with SK-MEL-2 melanoma was more than 100 µM each time.
With `CSC1=Nc2ccccc2-c2nc(-c3ccccc3)cc(-c3ccccc3)c2C1`, the TGI was 60.5 µM in the experiment on UACC-62 melanoma; more than 100 µM in the experiment on SF-539 CNS; 26 µM with 786-0 renal; more than 100 µM with MOLT-4 leukemia; 64.2 µM with SF-295 CNS; more than 100 µM in the experiment on HL-60(TB) leukemia. In the experiment on SK-MEL-28 melanoma, this compound came in with a TGI of more than 100 µM.
As for `O=C(O)CC(NC(=O)Nc1ccc([N+](=O)[O-])cc1)C(=O)Nc1ccc([N+](=O)[O-])cc1` (stereo not drawn), the TGI in the experiment on UACC-62 melanoma, in the experiment on SF-539 CNS, with 786-0 renal, in the experiment on OVCAR-3 ovarian, with MOLT-4 leukemia and in the experiment on MCF7 breast was more than 100 µM each time. Besides, the TGI in the experiment with SF-295 CNS, in the experiment with SK-MEL-28 melanoma and in the experiment with SK-MEL-2 melanoma was more than 100 µM in each case.
On to `CCCC1NC(C#N)(C#N)C(CCC)NC1(C#N)C#N` (stereo not drawn), for which the TGI is more than 100 µM with UACC-62 melanoma; more than 33.5 µM with 786-0 renal; 29.1 µM in the experiment on OVCAR-3 ovarian; 1.99 µM with MOLT-4 leukemia; more than 100 µM in the experiment on MCF7 breast; more than 100 µM with SF-295 CNS. The TGI is 0.343 µM in the experiment with HL-60(TB) leukemia, more than 100 µM in the experiment on SK-MEL-28 melanoma and more than 100 µM in the experiment on SK-MEL-2 melanoma.
Take `O=[N+]([O-])C(/C(Cl)=C(/Cl)N1CCOCC1)=C1\NCCO1`: the TGI with UACC-62 melanoma, in the experiment on SF-539 CNS, with 786-0 renal, in the experiment with OVCAR-3 ovarian, in the experiment with MOLT-4 leukemia and in the experiment with MCF7 breast was more than 100 µM each time. Also, the TGI in the experiment on SF-295 CNS, with SK-MEL-28 melanoma and in the experiment with SK-MEL-2 melanoma was more than 100 µM in each case.
Consider `COc1ccc2oc(S(=O)(=O)N3CC(CCl)c4ccc([N+](=O)[O-])cc43)cc2c1` (stereo not drawn), for which the TGI in the experiment with UACC-62 melanoma was more than 37.6 µM; in the experiment with SF-539 CNS, 0.308 µM; in the experiment with 786-0 renal it was 5.47 µM; with OVCAR-3 ovarian, 0.457 µM; in the experiment with MOLT-4 leukemia, more than 100 µM; with MCF7 breast it was 14.4 µM. The figures for the TGI with SF-295 CNS, in the experiment on SK-MEL-28 melanoma and in the experiment on SK-MEL-2 melanoma were 0.196 µM, more than 61.6 µM and 2.96 µM, respectively.
Regarding `O=C(NCC1Nc2ccncc2S(=O)(=O)N1)c1ccc(Br)cc1` (stereo not drawn), the TGI in the experiment on UACC-62 melanoma, in the experiment on 786-0 renal, in the experiment on OVCAR-3 ovarian, with MOLT-4 leukemia, with MCF7 breast and in the experiment on SF-295 CNS was more than 100 µM in each case. The TGI in the experiment with HL-60(TB) leukemia was more than 100 µM; with SK-MEL-28 melanoma, more than 100 µM; in the experiment on SK-MEL-2 melanoma, 57.4 µM.
`CC(C)CC(=O)NC(Nc1ccc(S(=O)(=O)Nc2ncccn2)cc1)(C(F)(F)F)C(F)(F)F`: the TGI in the experiment with UACC-62 melanoma, in the experiment with SF-539 CNS, in the experiment on 786-0 renal, in the experiment on OVCAR-3 ovarian, in the experiment on MOLT-4 leukemia and in the experiment on SF-295 CNS was more than 100 µM throughout. For the same compound, the TGI in the experiment with HL-60(TB) leukemia, with SK-MEL-28 melanoma and in the experiment on SK-MEL-2 melanoma was more than 100 µM each time.
For `CC1(C)CCC[C@]2(C)[C@@H]1CC[C@@]13O[C@@H]1C1=C(CO)C(=O)O[C@]14O[C@@H]4[C@@H]23`, the TGI was 37.7 µM in the experiment with UACC-62 melanoma; 37.6 µM in the experiment on SF-539 CNS; 29.8 µM with 786-0 renal; 27.1 µM with OVCAR-3 ovarian; more than 100 µM in the experiment with MOLT-4 leukemia; more than 63.9 µM with MCF7 breast. Also, the TGI came out at 32.3 µM in the experiment with SF-295 CNS, 31.4 µM in the experiment on SK-MEL-28 melanoma and 31.6 µM in the experiment on SK-MEL-2 melanoma.
